Laboratory results: patent US4129737A, “Process for the preparation of an 8-alkyl-5-oxo-5,8-dihydro-pyrido(2,3-d)pyrimidine-6-carboxylic acid” (priority 1972, dated 1978)
In brackets after ≈: the same amount, converted by molar mass.

Key:
Test in all cases: Average MIC, solid medium (nutrient agar) dilution method
Salm. typhi 0901 = format: cell-based; details: Salmonella enterica, 18 h, read-out: minimum inhibitory concentration, average
Esch. coli. 95 I.S.M. = details: Escherichia coli, 18 h, read-out: minimum inhibitory concentration, average
Pr. mirabilis Nig = details: Proteus mirabilis, 18 h, read-out: minimum inhibitory concentration, average
Esch. coli. LRB 45 = details: Escherichia coli, 18 h, read-out: minimum inhibitory concentration, average
Esch. coli. Cho = details: Escherichia coli, 18 h, read-out: minimum inhibitory concentration, average
Sh. sonnei I.P.S. = format: cell-based; details: Shigella sonnei, 18 h, average of five determinations, read-out: minimum inhibitory concentration, average
B. subtilis 6633 = details: Bacillus subtilis, 6633, 18 h, read-out: minimum inhibitory concentration, average
Streptococcus A561 = details: A561, 18 h, read-out: minimum inhibitory concentration, average
S. enteritidis DANYZ = details: Salmonella enterica, 18 h, read-out: minimum inhibitory concentration, average
Arizona 6211 = details: 18 h, read-out: minimum inhibitory concentration, average
Esch 111 B4 = format: cell-based; details: 18 h, average of five determinations, read-out: minimum inhibitory concentration, average
Staphylococcus 9144 = details: Staphylococcus, 9144, 18 h, read-out: minimum inhibitory concentration, average
Streptococcus DM19 = details: DM19, 18 h, read-out: minimum inhibitory concentration, average
S. oranienburg 10-66 = details: Salmonella enterica, 1066, 18 h, read-out: minimum inhibitory concentration, average
Esch. coli. 54-127 OMS = details: Escherichia coli, 18 h, read-out: minimum inhibitory concentration, average
Pr. morganii A 236 = details: Morganella morganii, A236, 18 h, read-out: minimum inhibitory concentration, average
Pr. vulgaris 12-53 = details: Proteus vulgaris, 1253, 18 h, read-out: minimum inhibitory concentration, average
Bord. bronch. 4617 = details: 18 h, read-out: minimum inhibitory concentration, average
Ps. aeruginosa A22 = details: Pseudomonas aeruginosa, A22, 18 h, read-out: minimum inhibitory concentration, average
Staphylococcus 209P = details: 18 h, read-out: minimum inhibitory concentration, average
Staphylococcus SIM = details: 18 h, read-out: minimum inhibitory concentration, average
Esch. coli. LRB 67 = details: Escherichia coli, 18 h, read-out: minimum inhibitory concentration, average
Ps. aeruginosa 72-345 = details: Pseudomonas aeruginosa, 72345, 18 h, read-out: minimum inhibitory concentration, average
Klebs. pneumoniae 10.031 = details: Klebsiella pneumoniae, 10.031, 18 h, read-out: minimum inhibitory concentration, average
Providencia 0223 = details: Providencia, 0223, 18 h, read-out: minimum inhibitory concentration, average

Structure (SMILES)	MIC (Salm. typhi 0901)	MIC (Esch. coli. 95 I.S.M.)	MIC (Pr. mirabilis Nig)	MIC (Esch. coli. LRB 45)	MIC (Esch. coli. Cho)	MIC (Sh. sonnei I.P.S.)	MIC (B. subtilis 6633)	MIC (Streptococcus A561)	MIC (S. enteritidis DANYZ)	MIC (Arizona 6211)	MIC (Esch 111 B4)	MIC (Staphylococcus 9144)	MIC (Streptococcus DM19)	MIC (S. oranienburg 10-66)	MIC (Esch. coli. 54-127 OMS)	MIC (Pr. morganii A 236)	MIC (Pr. vulgaris 12-53)	MIC (Bord. bronch. 4617)	MIC (Ps. aeruginosa A22)	MIC (Staphylococcus 209P)	other results
CCn1cc(C(=O)O)c(=O)c2cnc(N3CCCC3)nc21 [Example III, 2-Pyrrolidino-5-oxo-8-ethyl-5,8-dihydro-pyrido(2,3-d)-pyrimidine-6-carboxylic acid]	23.7 µg/mL (≈ 82.3 µM)	32.5 µg/mL (≈ 113 µM)	30 µg/mL (≈ 104 µM)	15.6 µg/mL (≈ 54.2 µM)	32.5 µg/mL (≈ 113 µM)	10.6 µg/mL (≈ 36.8 µM)	1 µg/mL (≈ 3.47 µM)	2.82 µg/mL (≈ 9.78 µM)	21.9 µg/mL (≈ 76 µM)	27.5 µg/mL (≈ 95.4 µM)	15.6 µg/mL (≈ 54.2 µM)	4.04 µg/mL (≈ 14 µM)	100 µg/mL (≈ 347 µM)	100 µg/mL (≈ 347 µM)	15.6 µg/mL (≈ 54.2 µM)	0.56 µg/mL (≈ 1.94 µM)	5.6 µg/mL (≈ 19.4 µM)	80 µg/mL (≈ 277 µM)	100 µg/mL (≈ 347 µM)	3.42 µg/mL (≈ 11.9 µM)	MIC (Staphylococcus SIM): 15 µg/mL (≈ 52 µM); MIC (Esch. coli. LRB 67): 12.5 µg/mL (≈ 43.4 µM); MIC (Ps. aeruginosa 72-345): 75 µg/mL (≈ 260 µM); MIC (Klebs. pneumoniae 10.031): 1.2 µg/mL (≈ 4.16 µM); MIC (Providencia 0223): 100 µg/mL (≈ 347 µM)
CCn1cc(C(=O)O)c(=O)c2ccc(C)nc21 [Nalidixic acid, nalidixic acid, reference compound]	2.7 µg/mL (≈ 11.6 µM)	21.9 µg/mL (≈ 94.2 µM)	3.42 µg/mL (≈ 14.7 µM)	3.1 µg/mL (≈ 13.3 µM)	4.04 µg/mL (≈ 17.4 µM)	1.58 µg/mL (≈ 6.8 µM)	72 µg/mL (≈ 310 µM)	18.7 µg/mL (≈ 80.7 µM)	2.75 µg/mL (≈ 11.8 µM)	3.12 µg/mL (≈ 13.4 µM)	2.34 µg/mL (≈ 10.1 µM)	25 µg/mL (≈ 108 µM)	100 µg/mL (≈ 431 µM)	100 µg/mL (≈ 431 µM)	2.15 µg/mL (≈ 9.26 µM)	0.36 µg/mL (≈ 1.55 µM)	0.88 µg/mL (≈ 3.79 µM)	25 µg/mL (≈ 108 µM)	60 µg/mL (≈ 258 µM)	16.2 µg/mL (≈ 69.9 µM)	MIC (Staphylococcus SIM): 56.2 µg/mL (≈ 242 µM); MIC (Esch. coli. LRB 67): 2.7 µg/mL (≈ 11.6 µM); MIC (Ps. aeruginosa 72-345): 60 µg/mL (≈ 258 µM); MIC (Klebs. pneumoniae 10.031): 1.4 µg/mL (≈ 6.03 µM); MIC (Providencia 0223): 100 µg/mL (≈ 431 µM)
